ChEMBL document CHEMBL1146434, “Michellamines D-F, new HIV-inhibitory dimeric naphthylisoquinoline alkaloids, and korupensamine E, a new antimalarial monomer, from Ancistrocladus korupensis” (J Nat Prod, 1997)
Converted amounts (≈) assume the structure as drawn.

Experiments:
Plasmodium falciparum = test: Antimalarial activity against Plasmodium falciparum; format: functional, organism-based
[1] = test system: Human immunodeficiency virus 1; test: Antiviral activity against HIV1 RF infected in human CEM-SS cells; format: functional, organism-based; details: Human immunodeficiency virus 1, RF
[2] = test system: Human immunodeficiency virus 1; test: Antiviral activity against HIV1 OC100 infected in human CEM-SS cells; format: functional, organism-based; details: Human immunodeficiency virus 1, CEM-SS
[3] = test system: Human immunodeficiency virus 1; test: Antiviral activity against HIV1 A17 infected in human MT2 cells; format: functional, organism-based; details: Human immunodeficiency virus 1, A17, MT2
[4] = test system: Human immunodeficiency virus 1; test: Antiviral activity against HIV1 G9106 infected in human MT2 cells; format: functional, organism-based; details: Human immunodeficiency virus 1, G9106, MT2
CEM-SS = test: Cytotoxicity against human CEM-SS cells; format: cell-based

Row | Structure (SMILES) | IC50 (Plasmodium falciparum) | EC50 [1] | EC50 [2] | EC50 [3] | EC50 [4] | IC50 (CEM-SS)
1 | COc1cc(O)c(-c2ccc(OC)c3c(O)cc(C)cc23)c2c1[C@@H](C)N[C@H](C)C2 [KORUPENSAMINE E] | 2 µg/mL (≈ 5.08 µM) |  |  |  |  | 
2 | COc1cc(C)cc2c(-c3c(O)cc(O)c4c3C[C@@H](C)N[C@@H]4C)cc(-c3cc(-c4c(O)cc(O)c5c4C[C@@H](C)N[C@@H]5C)c4cc(C)cc(OC)c4c3O)c(O)c12 [MICHELLAMINE A] |  | 6 µM | 23 µM | 18 µM | 19 µM | 
3 | COc1cc(O)c(-c2cc(-c3cc(-c4c(O)cc(O)c5c4C[C@@H](C)N[C@@H]5C)c4cc(C)cc(OC)c4c3O)c(O)c3c(OC)cc(C)cc23)c2c1[C@@H](C)N[C@H](C)C2 [MICHELLAMINE D] |  | 3 µM | 20 µM | 10 µM | 11 µM | 17 µM
4 | COc1cc(C)cc2c(-c3c(O)cc(O)c4c3C[C@H](C)N(C)[C@@H]4C)cc(-c3cc(-c4c(O)cc(O)c5c4C[C@@H](C)N[C@@H]5C)c4cc(C)cc(OC)c4c3O)c(O)c12 [MICHELLAMINE E] |  | 4 µM | 11 µM | 13 µM | 15 µM | 23 µM
5 | COc1cc(O)c(-c2cc(-c3cc(-c4c(O)cc(O)c5c4C[C@@H](C)N[C@@H]5C)c4cc(C)cc(OC)c4c3O)c(O)c3c(OC)cc(C)cc23)c2c1C(C)=N[C@H](C)C2 [MICHELLAMINE F] |  | 2 µM | 9 µM | 11 µM | 8 µM | 188 µM
